This note sets out measurements from patent US9388215B2, “Compositions and methods of using islet neogenesis peptides and analogs thereof” (SHENZHEN HIGHTIDE BIOPHARMACEUTICAL, LTD., priority 2013, dated 2016).

Data set [1] in a line: Pharmacokinetics in rat, intravenous bolus. It is filed as in vivo. To be noted: male, Sprague-Dawley, plasma, RAT (IV), 25 mg/kg; for AUC(0-t): read-out: AUC(0-t); for AUC(0-inf): read-out: AUC(0-∞); for Cmax: read-out: Cmax. The protocol: (§1) After 7 days acclimation, male Sprague-Dawley (SD) rats weighing 210-250 g, or male C57BL/6 mice, weighing 19-24 g, in good health were used in the study. Peptide 1, Peptide 12 and Peptide 16 were dissolved in sterile normal saline and then they were injected via subcutaneous (sc) bolus or intravenous (iv) bolus at the dose level of 25 mg/kg. Three animals in each group were used for blood collection at the time point of 5 min, 15 min, 30 min, 1 h, 2 h, 4 h, 6 h, 8 h and 24 h post-dose. Blood samples (approximately 400 μL) were collected and placed into tubes containing EDTA-K2 and centrifuged at 8000 rpm for 6 minutes at 4° C. to separate plasma from the samples. The resulting plasma was stored frozen at −80° C. until being analyzed. Plasma concentrations of peptides were determined using tandem mass spectrometry (LC-MS/MS) analysis. A non-compartmental module of WinNonlin® Professional 5.2 (Pharsight; St. Louis Mo.), was used to calculate PK parameters. The abbreviation AUC(0-t) represents area under the curve from the time of dosing to the time of the last observation, the AUC(0-∞) represents area under the curve from the time of dosing to infinity, and the Cmax represents maximum concentration detected.

Another data set relates to pancreatic islets. Briefly: Glucose-stimulated insulin secretion (GSIS) of isolated islets. It is filed as cell-based, rat. The note with it: 12.0 mM glucose; 10 μg/mL peptide or 100 nM GLP-1; 60 min; FIG. 8. The protocol: The pancreases were procured from male adult Sprague-Dawley (SD) rats. After 7 days acclimation, the animals were sacrificed by cervical dislocation and the entire pancreas was removed and digested with collagenase to isolate islets. After digestion, islets were maintained at 37° C. in RPMI 1640 (Carlsbad Calif., USA) pH 7.4, containing 10% (v/v) fetal calf serum, 1% penicillin/streptomycin, and 10 mM glucose in a humid atmosphere (5% CO2/95% O2), without the addition of any compound (control), or with the addition of 100 nM glucagon like peptide-1 (GLP-1); or 10 μg/mL Peptide 1, Peptide 12, or Peptide 16, as summarized in Table 4 below. Cultured islets were rinsed in Krebs-Ringer bicarbonate buffer (KRB), pH 7.4, previously gassed with a mixture of CO2/O2 (5/95%), and pre-incubated in 1.0 ml of KRB containing 0.5% (w/v) BSA and 1.5 mM glucose at 37° C. for 45 min. After this period, groups of 5 islets were incubated in 0.6 ml KRB with the addition of 1.5 or 12.0 mM glucose, with or without the addition of peptides for 60 min. At the end of the incubation period, aliquots of the medium were collected for insulin quantitation.

The nature of data set [2]: Pharmacokinetics in rat, subcutaneous bolus (Example VII). It counts as in vivo. The note with it: male, Sprague-Dawley, plasma, RAT (SC), 25 mg/kg; for AUC(0-t): read-out: AUC(0-t); for AUC(0-inf): read-out: AUC(0-∞); for Cmax: read-out: Cmax. The protocol:
as §1

A short description of data set [3]: Pharmacokinetics in SD rats after single subcutaneous dose (Example X). It counts as in vivo, rat. To be noted: plasma, sc, male Sprague-Dawley rat, subcutaneous, 25 mg/kg; for AUC(0-t): read-out: AUC(0-t); for AUC(0-inf): read-out: AUC(0-∞); for Cmax: read-out: Cmax. Here is the method: After 7 days acclimation, a total of 15 male Sprague-Dawley (SD) rats (body weight: 230 to 270 g) in good health from Sino-British SIPPR/BK Lab Animal Ltd, Shanghai, were used in the study. All peptides, Peptide 1, Peptide 12, Peptide 16, Peptide 29 or Peptide 31, were dissolved in sterile normal saline respectively to yield the desired final concentrations and were administered via single subcutaneous (sc) dose.
Three animals in each group were used for blood collection at the time point of 5 min, 15 min, 30 min, 1 h, 2 h, 4 h, 6 h, 8 h and 24 h post-dose. Blood samples (approximately 400 μL) were collected and placed into tubes containing EDTA-K2 (dipotassium ethylene diamine tetraacetic acid) and centrifuged at 8000 rpm for 6 minutes at 4° C. to separate plasma from the samples. The resulting plasma was stored frozen at −80° C. until being analyzed.
Plasma concentrations of peptides were determined using tandem mass spectrometry (LC-MS/MS) analysis. A non-compartmental module of WinNonlin® Professional 5.2 (Pharsight; St. Louis Mo.) was used to calculate PK parameters. AUC(0-t) represents area under the curve from the time of dosing to the time of the last observation, the AUC(0-∞) represents area under the curve from the time of dosing to infinity, and the Cmax represents maximum concentration detected.

The format of data set [4] is physicochemical. The note with it: pH 5. Here is the method:
Peptide stability in buffers was tested for INGAP-PP and selected analogs. 10 mg/mL of Peptide 1, Peptide 12, Peptide 16, Peptide 29 or Peptide 31 was dissolved in isotonic buffers with pH ranging from 4.0 to 8.0. […] Peptide 12 and Peptide 29 were stable in an isotonic phosphate buffer (pH 7.4) for more than 90 days at 4° C. (there was no sign of degradation at 90 days sample check point), and 60 days at 25° C.

Data set [5] in a line: Peptide stability in rat plasma. To be noted: 100 μg/mL, 37° C.; FIG. 12, 13. It is filed as in vitro ADME. The protocol: The stability of peptides was also tested in rat, mouse and human plasma. Briefly, a certain amount of peptides and eucatropine powder (positive control) was accurately weighed. Test compounds were dissolved in 50% methanol-water solution and diluted to 20 mg/mL, and eucatropine was dissolved in dimethylsulfoxide (DMSO) and diluted to 10 mM, as a stock solution. Eucatropine stock solution was diluted to 0.2 mM with DMSO as a working solution. A stop reagent was prepared containing 200 ng/mL midazolam and tolbutamide in acetonitrile. A volume of 300 μL of stop solution was added to each well of a 96-well deep-well plate placed on ice beforehand.
For the stability studies, peptides and eucatropine were spiked into plasma respectively, mixed well, and then 100 μL of each mixture solution was transferred into the pre-cooled stop reagent as 0 time point sample. The remaining mixtures were incubated in a 37° C. water bath with shaking at 100 rpm (n=2). The final incubation concentration was 1 μM for eucatropine and 100 μg/mL for all test compounds.
At desired time points, 100 μL of incubation mixture was transferred to the stop reagent to precipitate proteins. Samples were vortexed and centrifuged at RCF 5000×g for 10 minutes, and supernatant was transferred to a test plate. The samples were analyzed by LC-MS/MS.
Slope was calculated by plotting the natural logarithm of the percentage of remaining amount of test compounds and time, and T1/2 was calculated in accordance with the following formula.
For stability in rat plasma, the incubation time was 0, 15, 30, 60 and 120 min for Peptide 1 and eucatropine, and 0, 15, 30, 60, 120, and 240 min for Peptide 12, Peptide 16, Peptide 29 and Peptide 31.
In another stability study in rat plasma, the incubation time was 0, 30, 60 120 and 240 min for Peptide 2, Peptide 52, Peptide 64 and eucatropine.

Usually AUC(0-t) stands for the area under the concentration-time curve up to a stated or last time point. Broadly, the Cmax is the highest concentration seen after dosing.

With “H-IGLHDPSHGTLPNGS-OH [Peptide 1, H-IGLHDPSHGTLPNGS-OH, reference compound]”, in data set [1], the AUC(0-t) was determined as 21.9 ng·h/mL, the AUC(0-inf) is 27.1 ng·h/mL and the Cmax was found to be 48.7 ng/mL. Moreover, in the data set on pancreatic islets, the “glucose-stimulated insulin release vs islets without peptide” value is on record as “no stimulation was observed”. Also, in data set [2], the AUC(0-t) came to 298 ng·h/mL, the AUC(0-inf) came out at 305 ng·h/mL and the Cmax came out at 1240 ng/mL. Besides, in data set [3], the AUC(0-t) was determined as 294 ± 125 ng·h/mL, the AUC(0-inf) stood at 298 ± 122 ng·h/mL and the Cmax was 1190 ± 610 ng/mL.

In the case of “Ac-IGLHDPSHGTLPNGS-OH [Peptide 16, Ac-IGLHDPSHGTLPNGS-OH]”, in data set [4], the “time stable in isotonic acetate buffer (pH 5.0) at 4° C.” value is recorded as “up to 90 days” and the “time stable in isotonic acetate buffer (pH 5.0) at 25° C.” value is “less than 7 days”. In data set [1], the AUC(0-t) was 12200 ng·h/mL, the AUC(0-inf) came out at 12200 ng·h/mL and the Cmax was found to be 45200 ng/mL. For the same substance, in the data set on pancreatic islets, the “glucose-stimulated insulin release vs islets without peptide” value is “released significantly more insulin than those cultured without the addition of peptides”. Moreover, in data set [5], the “stability in rat plasma” value was “exhibited good stability in rat plasma and were more stable than INGAP-PP”. Moreover, in data set [2], the AUC(0-t) was 12100 ng·h/mL, the AUC(0-inf) is 12200 ng·h/mL and the Cmax was determined as 18900 ng/mL. In addition, in data set [3], the exposure AUC(0-t) turned out to be 11200 ± 1880 ng·h/mL, the AUC(0-inf) was determined as 11200 ± 1880 ng·h/mL and the Cmax was 22100 ± 5870 ng/mL.

In the case of “Ac-IGLHDPSHGTLPNGS-NH2 [Peptide 31, Ac-IGLHDPSHGTLPNGS-NH2]”, in data set [4], the “time stable in isotonic acetate buffer (pH 5.0) at 4° C.” value is listed as “up to 90 days” and the “time stable in isotonic acetate buffer (pH 5.0) at 25° C.” value is listed as “less than 7 days”. Moreover, the “stability in rat plasma” value in data set [5] is “exhibited good stability in rat plasma and were more stable than INGAP-PP”. In addition, in data set [3], the AUC(0-t) was 15600 ± 1530 ng·h/mL, the AUC(0-inf) worked out at 15600 ± 1530 ng·h/mL and the Cmax was 26000 ± 3100 ng/mL.
